Source: patent US11697646B2, “Triazole N-linked carbamoyl cyclohexyl acids as LPA antagonists” (BRISTOL-MYERS SQUIBB COMPANY, priority 2017, dated 2023)
Where a name gives a salt, the structure may show the parent alone.

Molecular target: T1, human LPA1 (Homo sapiens, UniProt Q92633)
T1 construct: expressed in transfected cells; host or cells: Chinese hamster ovary (CHO) cells
Test: LPA1 functional antagonist assay (calcium flux)
Type: cell-based
Settings: CHO cells overexpressing human LPA1; calcium flux induced by 10 nM LPA; read-out: hLPA1 IC50
Experimental: The effectiveness of compounds of the present invention as LPA1 inhibitors can be determined in an LPA1 functional antagonist assay as follows:
The cells were then equilibrated to room temperature for 30 minutes before the assay. […] IC50 values were determined by fitting data to a 4-parameter logistic equation (GraphPad Prism, San Diego Calif.).

T1 sequence (Q92633 whole entry): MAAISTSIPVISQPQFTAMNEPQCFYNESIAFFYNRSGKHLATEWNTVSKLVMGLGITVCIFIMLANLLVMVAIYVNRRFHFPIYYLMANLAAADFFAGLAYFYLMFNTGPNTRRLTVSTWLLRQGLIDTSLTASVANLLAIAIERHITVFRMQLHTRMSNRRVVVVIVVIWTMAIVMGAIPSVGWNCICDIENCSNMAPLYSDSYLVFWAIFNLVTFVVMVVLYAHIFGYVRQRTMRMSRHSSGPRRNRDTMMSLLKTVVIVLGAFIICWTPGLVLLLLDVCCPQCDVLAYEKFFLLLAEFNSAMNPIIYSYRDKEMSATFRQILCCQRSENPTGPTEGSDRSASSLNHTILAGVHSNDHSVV

IC50	SMILES
885 nM	CCOCCOC(=O)NCc1c(-c2ccc(O[C@H]3CCC[C@H](C(=O)O)C3)c(C)n2)nnn1C [Example 56, (1S,3S)-3-((6-(5-((((2-ethoxyethoxy)carbonyl)amino)methyl)-1-methyl-1H-1,2,3-triazol-4-yl)-2-methyl-pyridin-3-yl)oxy)cyclohexane-1-carboxylic acid]
342 nM	COCCCOC(=O)NCc1c(-c2ccc(O[C@H]3CCC[C@H](C(=O)O)C3)c(C)n2)nnn1C [Example 53, (1S,3S)-3-((6-(5-((((3-methoxypropoxy)carbonyl)amino)methyl)-1-methyl-1H-1,2,3-triazol-4-yl)-2-methylpyridin-3-yl)oxy)cyclohexane-1-carboxylic acid]
47 nM	Cc1nc(-c2nnn(C)c2CNC(=O)OCC2CC2)ccc1O[C@H]1CCC[C@H](C(=O)O)C1 [Example 7, (1S,3S)-3-((6-(5-((((cyclopropylmethoxy)carbonyl)amino)methyl)-1-methyl-1H-1,2,3-triazol-4-yl)-2-methylpyridin-3-yl)oxy)cyclohexane-1-carboxylic acid]
28 nM	CCc1nc(-c2nnn(C)c2NC(=O)OCC2CC2)ccc1O[C@H]1CCC[C@H](C(=O)O)C1 [Example 231, (1S,3S)-3-{[6-(5-{[(cyclopropyl-methoxy)carbonyl}amino}-1-methyl-1H-1,2,3-triazol-4-yl)-2-ethylpyridin-3-yl]oxy}cyclohexane-1-carboxylic acid]
2270 nM	Cc1nc(-c2nnn(C)c2CNC(=O)NCC(C)C)ccc1O[C@H]1CCC[C@H](C(=O)O)C1 [Example 127, (1S,3S)-3-((6-(5-((3-isobutylureido)methyl)-1-methyl-1H-1,2,3-triazol-4-yl)-2-methylpyridin-3-yl)oxy)cyclohexane-1-carboxylic acid]
457 nM	Cn1nnc(-c2ccc(O[C@@H]3CCC[C@@H](C(=O)O)C3)cc2)c1CNC(=O)OCCC1CC1 (racemic) [Example 39, (±)-trans-3-(4-(5-((((2-cyclopropylethoxy)carbonyl)amino)methyl)-1-methyl-1H-1,2,3-triazol-4-yl)phenoxy)cyclohexane-1-carboxylic acid]
148 nM	CC(C)CCOC(=O)NCc1c(-c2ccc(O[C@@H]3CCC[C@@H](C(=O)O)C3)cc2)nnn1C (racemic) [Example 4, (±)-(trans)-3-(4-(5-((((isopentyloxy)carbonyl)amino)methyl)-1-methyl-1H-1,2,3-triazol-4-yl)phenoxy)cyclohexane-1-carboxylic acid]
187 nM	CCCC(NC(=O)NCc1c(-c2ccc(O[C@H]3CCC[C@H](C(=O)O)C3)c(C)n2)nnn1C)c1ccccc1 (mixture of isomers) [Example 119, (1S,3S)-3-((2-methyl-6-(1-methyl-5-((3-(1-phenylbutyl)ureido)methyl)-1H-1,2,3-triazol-4-yl)pyridin-3-yl)oxy)cyclo-hexane-1-carboxylic acid]
149 nM	Cn1nnc(-c2ccc(O[C@H]3CCC[C@H](C(=O)O)C3)cn2)c1NC(=O)OC1CCCC1 [Example 90, (1S,3S)-3-((6-(5-(((cyclopentyloxy)carbonyl)amino)-1-methyl-1H-1,2,3-triazol-4-yl)pyridin-3-yl)oxy)cyclohexane-1-carboxylic acid]
105 nM	Cc1nc(-c2nnn(C)c2CNC(=O)CC2CCCC2)ccc1O[C@H]1CCC[C@H](C(=O)O)C1 [Example 235, (1S,3S)-3-((6-(5-((2-cyclopentylacetamido)methyl)-1-methyl-1H-1,2,3-triazol-4-yl)-2-methylpyridin-3-yl)oxy)cyclohexanecarboxylic acid]
867 nM	CCCOC(=O)NCc1c(-c2ccc(O[C@H]3CCC[C@H](C(=O)O)C3)c(C(F)(F)F)n2)nnn1C [Example 95, (1S,3S)-3-((6-(1-methyl-5-(((propoxy-carbonyl)amino)methyl)-1H-1,2,3-triazol-4-yl)-2-(trifluoromethyl)pyridin-3-yl)oxy)cyclohexane-1-carboxylic acid]
3 nM	CCCCCCOC(=O)NCc1c(-c2ccc(O[C@H]3CCC[C@H](C(=O)O)C3)c(C)n2)nnn1C [Example 20, (1S,3S)-3-((6-(5-((((hexyloxy)carbonyl)amino)methyl)-1-methyl-1H-1,2,3-triazol-4-yl)-2-methyl-pyridin-3-yl)oxy)cyclohexane-1-carboxylic acid]
105 nM	CCC(C)CNC(=O)NCc1c(-c2ccc(O[C@H]3CCC[C@H](C(=O)O)C3)c(C)n2)nnn1C (mixture of isomers) [Example 118, (1S,3S)-3-((2-methyl-6-(1-methyl-5-((3-(2-methylbutyl)ureido)methyl)-1H-1,2,3-triazol-4-yl)pyridin-3-yl)oxy)cyclo-hexane-1-carboxylic acid]
238 nM	CCC(NC(=O)NCc1c(-c2ccc(O[C@H]3CCC[C@H](C(=O)O)C3)c(C)n2)nnn1C)c1ccccc1 (mixture of isomers) [Example 120, (1S,3S)-3-((2-methyl-6-(1-methyl-5-((3-(1-phenylpropyl)ureido)methyl)-1H-1,2,3-triazol-4-yl)pyridin-3-yl)oxy)cyclo-hexane-1-carboxylic acid]
19 nM	Cc1nc(-c2nnn(C)c2CNC(=O)OCC2CC(C)(C)C2)ccc1O[C@H]1CCC[C@H](C(=O)O)C1 [Example 38, (1S,3S)-3-((6-(5-(((((3,3-dimethylcyclobutyl)methoxy)carbonyl)amino)methyl)-1-methyl-1H-1,2,3-triazol-4-yl)-2-methylpyridin-3-yl)oxy)cyclohexanecarboxylic acid]

SMILES	IC50
CC[C@H](C)COC(=O)NCc1c(-c2ccc(O[C@H]3CCC[C@H](C(=O)O)C3)c(C)n2)nnn1C [Example 1, (1S,3S)-3-((2-Methyl-6-(1-methyl-5-(((((S)-2-methylbutoxy)carbonyl)amino)methyl)-1H-1,2,3-triazol-4-yl)pyridin-3-yl)oxy)cyclohexanecarboxylic acid]	18 nM
Cc1nc(-c2nnn(C)c2CNC(=O)OC[C@@H]2CC2(F)F)ccc1O[C@H]1CCC[C@H](C(=O)O)C1 [Example 208, (1S,3S)-3-((6-(5-((((((S)-2,2-difluorocyclopropyl)methoxy)carbonyl)amino)methyl)-1-methyl-1H-1,2,3-triazol-4-yl)-2-methylpyridin-3-yl)oxy)cyclohexane-1-carboxylate diethylammonium salt]	57 nM
Cc1nc(-c2nnn(C)c2NC(=O)OCCC(C)(C)C)ccc1O[C@H]1CCC[C@H](C(=O)O)C1 [Example 65, (1S,3S)-3-((6-(5-(((3,3-dimethyl-butoxy)carbonyl)amino)-1-methyl-1H-1,2,3-triazol-4-yl)-2-methyl-pyridin-3-yl)oxy)cyclohexane-1-carboxylic acid]	75 nM
Cc1nc(-c2nnn(C)c2CNC(=O)OCC(C)CC(F)(F)F)ccc1O[C@H]1CCC[C@H](C(=O)O)C1 (mixture of isomers) [Example 32, (1S,3S)-3-((2-methyl-6-(1-methyl-5-((((4,4,4-trifluoro-2-methylbutoxy)carbonyl)amino)methyl)-1H-1,2,3-triazol-4-yl)pyridin-3-yl)oxy)cyclo-hexane-1-carboxylic acid]	69 nM
CCCCOC(=O)Nc1c(-c2ccc(O[C@H]3CCC[C@H](C(=O)O)C3)c(C)n2)nnn1C [Example 222, (1S,3S)-3-((6-(5-((butoxycarbonyl)amino)-1-methyl-1H-1,2,3-triazol-4-yl)-2-methylpyridin-3-yl)oxy)cyclohexane-1-carboxylic acid]	21 nM
CC[C@H](C)COC(=O)N(C)Cc1c(-c2ccc(O[C@H]3CCC[C@H](C(=O)O)C3)c(C)n2)nnn1C [Example 2, (1S,3S)-3-((2-Methyl-6-(1-methyl-5-((methyl(((S)-2-methylbutoxy)carbonyl)amino)methyl)-1H-1,2,3-triazol-4-yl)pyridin-3-yl)oxy)cyclohexanecarboxylic acid]	29 nM
CCCCOC(=O)NCc1c(-c2ccc(O[C@H]3CCC[C@H](C(=O)O)C3)c(CC)n2)nnn1C [Example 41, (1S,3S)-3-((6-(5-(((butoxycarbonyl)amino)methyl)-1-methyl-1H-1,2,3-triazol-4-yl)-2-ethylpyridin-3-yl)oxy)cyclohexane-1-carboxylic acid]	8 nM
CCCCOC(=O)Nc1c(-c2ccc(O[C@H]3CCC[C@H](C(=O)O)C3)c(CC)n2)nnn1C [Example 232, (1 S,3 S)-3-[(6-{5-[(butoxycarbonyl)amino]-1-methyl-1H-1,2,3-triazol-4-yl}-2-ethylpyridin-3-yl)oxy]cyclo-hexane-1-carboxylic acid]	12 nM

Same assay, conditions: human LPA1 functional antagonist assay; read-out: hLPA1 IC50

SMILES	IC50
CC(COC(=O)NCc1c(-c2ncc(O[C@H]3CCC[C@H](C(=O)O)C3)cn2)nnn1C)CC(F)(F)F (stereo partly drawn) [Example 154, (1S,3S)-3-((2-(1-methyl-5-((((4,4,4-trifluoro-2-methylbutoxy)carbonyl)amino)methyl)-1H-1,2,3-triazol-4-yl)pyrimidin-5-yl)oxy)cyclohexane-1-carboxylic acid]	2900 nM
Cc1nc(-c2nnn(C)c2CNC(=O)OC2CC(C)(C)C2)ccc1O[C@H]1CCC[C@H](C(=O)O)C1 [Example 168, (1S,3S)-3-((6-(5-((((3,3-dimethyl-cyclobutoxy)carbonyl)amino)methyl)-1-methyl-1H-1,2,3-triazol-4-yl)-2-methylpyridin-3-yl)oxy)cyclo-hexane-1-carboxylic acid]	90 nM
Cc1nc(-c2nnn(C)c2CNC(=O)OCC2CC2(F)F)ccc1O[C@H]1CCC[C@H](C(=O)O)C1 (mixture of isomers) [Example 180, (1S,3S)-3-((6-(5-(((((2,2-difluoro-cyclopropyl)methoxy)carbonyl)amino)methyl)-1-methyl-1H-1,2,3-triazol-4-yl)-2-methylpyridin-3-yl)oxy)cyclohexane-1-carboxylic acid (diastereomers at cyclopropyl carbon)]	53 nM
